The source of these data is patent US20260306640A1, “TECHNOLOGIES TARGETING CELL STATES” (Auron Therapeutics, Inc., priority 2023, published 2026).

One experiment relates to histone acetylation. Put plainly: Western blot of histone acetylation in NEPC primary patient organoid, 72 hours. It is filed as cell-based. To be noted: FIG. 3 (D). As to the method: FIG. 3. Provided compounds can provide various activities. (A): Provided technologies can reduce KAT2A and KAT2B levels and histone acetylation levels. […] Cell viability (Cell Titer Glo) data relative to DMSO control after 7 days of treatment with compound 22 are presented as examples to confirm inhibition. GI50=5 nM. (C): Provided technologies can modulate cell states and induce differentiation. […] (D): Provided technologies can reduce KAT2A and KAT2B levels and histone acetylation levels including in neuroendocrine prostate cancer primary patient organoid. […] Concentrations are nM. […] Cell viability data relative to DMSO control after 21 days of treatment with compound 22 are presented as examples to confirm inhibition. GI50=3 nM. (F): Provided technologies can modulate cell states and induce differentiation.
(Immunoblotting shows a protein as a band on a membrane.)

The subject of another experiment is NCI-H1048 cells. Put plainly: Cell growth inhibition, SCLC cell line NCI-H1048 (cell count, day 11). It counts as cell-based, human. To be noted: for GI50: Homo sapiens. The source says:
Among other things, provided technologies are useful for treating various diseases, disorders, or conditions. For example, in some embodiments, provided technologies are useful for treating cancer as confirmed in the present Example. […] In some embodiments, provided technologies can inhibit cell proliferation. In some embodiments, the present disclosure provides technologies for assessing various technologies, e.g., compounds, compositions, or methods. Among other things, the present Example provides technologies, e.g., cell growth inhibition assay, for assessing various technologies. […] In some embodiments, the following cell growth inhibition methods are utilized to assess provided technologies.
SCLC: SCLC cell lines NCI-H1048 and NCI-H1876 were cultured in DMEM F12 media with 5% FBS, 1% Penicillin/Streptomycin and HITES supplement (Hydrocortisone, Insulin, Transferrin, Estradiol and Sodium Selenite). NCI-H1048 cells were plated at 10,000 cells/well of a 24-well plate and NCI-H1876 cells were plated at 20,000 cells/well of a 96-well plate. Compound and media were replenished every two days out to day 11 and 10 respectively. Cells were then trypsinized and counted using either hemocytometer or an automated Countess cell counter.
In some assessments, for cell growth inhibition, cells, e.g., MOLM13, NCI-H1048, and LASCPC-01 cells, were counted using a hemocytometer or automated cell counting in triplicates. In some assessments, proliferation in NEPC organoids as measured with Cell Titer Glo reagent (Promega). Growth inhibition was determined relative to vehicle control.

For experiment [1], the system named is histone acetylation (e.g., AcH3K9). Put plainly: Histone H3K9 acetylation (AcH3K9), Western Blot, LASCPC-01 cells. It is filed as cell-based. The settings on record: FIG. 3. As to the method:
In some embodiments, an assessment is performed using cells. In some embodiments, cells were treated with various compounds before assessing KAT2A and/or KAT2B levels, histone (e.g., H3K9) acetylation levels, cell states, growth, etc.
Western Blot: In some assessments, MOLM13, NCI-H1048, LASCPC-01 and NEPC organoid cells were treated with compounds at certain concentrations for certain periods of time, and cell pellets were lysed by adding 1-part 4×laemmli Sample buffer (e.g., Bio-Rad Catalog #1610747) along with Mercaptoethanol (e.g., Bio-Rad Catalog #1610710) according to manufacturer's instructions, and 1-part RIPA buffer with 2×protease and phosphatase inhibitor. The samples were sonicated 30% amplitude, 35 seconds on and 35 seconds off for 1 cycle and boiled at 95° C. for 5 minutes. 30-35 μL of samples were loaded on a 4-15% Criterion™ TGX Stain-Free™ Protein Gel (Bio-rad, 5678084). In some assessments, NCI-H1048 flash frozen tumor pieces were resuspended in RIPA buffer and homogenized on TissueLyser II with steel beads at 30 Hz for 3 minutes. Samples were then centrifuged at […] at 4° C. for 15 minutes. BCA protein determination was performed and samples normalized for 1.95 ug/uL. 19.5 uL were loaded and run on similar gels as cell pellets. […]

In a further experiment the target is KAT2B (Homo sapiens, UniProt Q92831). The experiment in a line: KAT2B degradation, Western Blot, MOLM-13 cells. It counts as cell-based. Details: degrader, Western blot. As to the method: MOLM-13 cells were maintained at 37° C. in 5% CO2 and 90% humidity in RPMI 1640 supplemented with 20% fetal bovine serum (FBS) and 1× penicillin/streptomycin. Cells were plated in full media at 1-2 million cells/2 mL in a 6-well tissue culture treated plate with or without compounds for 24 h at 37° C. in 5% CO2.
MOLM-13 cells or NCI-H1048 cells were washed with PBS, then lysed with RIPA buffer containing 1×protease and phosphatase inhibitors (SantaCruz Biotechnologies Cat #sc-24948A). Protein was isolated by centrifugation at 12,000×g for 10 minutes at 4° C. and supernatant was collected. Protein was quantified via Bradford assay. Samples were diluted to 4 μg lysate in 16 μL RIPA buffer and then 4 μL of Jess Sample Buffer. Samples were heated at 95° C. for 5 minutes. Samples were loaded onto 12-230 kDa Jess™ Separation Module, 8×25 capillary cartridges (SM-W004, Biotechne). Antibodies loaded were: Primary antibody for KAT2A (GCN5L2 (C26A10) Rabbit mAb (3305, CST)) and for KAT2B (PCAF (C14G9)) Rabbit mAb (3378, CST) at 1:1000 and Anti-Rabbit Detection Module for Jess™ (Cat No #DM-001, Biotechne). Signal was detected by chemiluminescence.
DC50 values were determined from percent reduction of protein as compared to the DMSO control.

Structures are written as SMILES. Like-named read-outs stand apart in the source and are kept apart here.

KAT2B, sequence (Q92831 whole entry): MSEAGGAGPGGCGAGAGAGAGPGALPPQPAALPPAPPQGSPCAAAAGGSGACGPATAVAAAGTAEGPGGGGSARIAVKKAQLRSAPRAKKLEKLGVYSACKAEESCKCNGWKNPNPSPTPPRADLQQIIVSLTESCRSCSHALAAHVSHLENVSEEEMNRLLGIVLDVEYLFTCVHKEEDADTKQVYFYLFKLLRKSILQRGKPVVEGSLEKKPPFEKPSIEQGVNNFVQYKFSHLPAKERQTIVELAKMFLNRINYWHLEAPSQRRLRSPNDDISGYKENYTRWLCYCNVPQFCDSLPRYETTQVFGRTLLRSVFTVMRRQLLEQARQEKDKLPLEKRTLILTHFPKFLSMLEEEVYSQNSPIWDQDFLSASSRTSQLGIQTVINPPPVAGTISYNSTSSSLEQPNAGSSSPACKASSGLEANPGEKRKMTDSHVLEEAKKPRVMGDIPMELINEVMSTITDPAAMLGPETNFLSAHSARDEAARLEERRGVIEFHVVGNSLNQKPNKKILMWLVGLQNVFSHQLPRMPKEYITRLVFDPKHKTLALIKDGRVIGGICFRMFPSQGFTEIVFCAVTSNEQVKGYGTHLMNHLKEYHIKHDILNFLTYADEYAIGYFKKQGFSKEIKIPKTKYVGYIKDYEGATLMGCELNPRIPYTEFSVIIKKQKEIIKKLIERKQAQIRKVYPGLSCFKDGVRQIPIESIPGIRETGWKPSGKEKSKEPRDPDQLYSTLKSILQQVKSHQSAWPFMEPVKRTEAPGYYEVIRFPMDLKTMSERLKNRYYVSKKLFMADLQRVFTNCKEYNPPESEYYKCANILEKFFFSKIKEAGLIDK

As a reminder, the GI50 is the concentration that inhibits growth by half. By DC50 is commonly meant the midpoint of the concentration-degradation curve. For the compound `CN1C[C@H](Nc2cnn(C)c(=O)c2Br)C[C@H](c2ccc(C(=O)N3CCC(CN4CCN(c5ccc6c(c5)CN(C5CCC(=O)NC5=O)C6=O)CC4)CC3)cc2)C1` (stereo partly drawn) [Compound 22, 3-(5-(4-((1-(4-((3R,5R)-5-((5-bromo-1-methyl-6-oxo-1,6-dihydropyridazin-4-yl)amino)-1-methylpiperidin-3-yl)benzoyl)piperidin-4-yl)methyl)piperazin-1-yl)-1-oxoisoindolin-2-yl)piperidine-2,6-dione], in the experiment with histone acetylation, the “reduction of histone acetylation level” value is recorded as “confirmed such reductions”. The 50% growth inhibitory concentration (GI50) in the experiment on NCI-H1048 cells (264 h, NCI-H1048, day 11, cell count, read-out: H1048 GI50) was 1 nM; with NCI-H1048 cells (NCI-H1048, comparison table with Ref-1, read-out: Growth GI50), 1.5 nM. In addition, the “cell growth in vitro” value in the experiment on NCI-H1048 cells (NCI-H1048 cells, FIG. 1) is “inhibit cell growth in vitro and in vivo”. Besides, in experiment [1], the “histone acetylation (e.g., AcH3K9) levels” value is “reduce histone acetylation (e.g., AcH3K9) levels”. In addition, the EC90 at KAT2B (24 h, MOLM-13, KAT2B, read-out: DC90 (the source's name)) is 3.6 nM. Further, at KAT2B (MOLM-13, KAT2B), it took 0.43 nM to reach half-maximal degradation (DC50). Also, on KAT2B (MOLM-13 cells, FIG. 2), the KAT2B levels result is “potently reduce KAT2A and KAT2B levels”.
